From patent publication US12303509B2, “Compounds for the treatment of BRAF-associated diseases and disorders” (Pfizer Inc., priority 2020, dated 2025)
Where a name gives a salt, the structure may show the parent alone. Read-outs that look alike come from different tables or passages of the source.

Key:
[1] = target: full-length FLAG-tagged B-Raf(V600E) (Homo sapiens (Human), UniProt P15056, V600E); experiment: BRAF V600E enzyme assay (TR-FRET competitive displacement); type: binding
In short: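 TR-FRET tracer competition: compound (top dose 10 μM, 3-fold, 11 points) incubated 60 min at ambient temperature with FLAG-tagged full-length B-Raf(V600E) (5 nM), Eu anti-FLAG cryptate (0.5 nM) and tracer (50 nM), pH 7.4 HEPES/MgCl2 buffer. 665/615 ratio converted to percent of control; IC50 where fitted curve crosses 50 POC.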

A375 cells = experiment: Cellular phospho-ERK inhibition assay in A375 cells; type: cell-based; conditions: Homo sapiens, A-375, A375 cells (head prints A357), 2 hours treatment, read-out: A357 cell IC50
In short: (§1)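 In Cell Western detection of phospho-ERK1/2 (Thr202/Tyr204) over GAPDH after 2 h compound exposure (66 pM to 10 μM, 9 points, 0.25% DMSO) of A375 cells in DMEM or H1755 cells in RPMI, both with 10% FBS. Percent of control set by DMSO and 10 μM binimetinib; 4-parameter IC50.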

H1755 cells = experiment: Cellular phospho-ERK inhibition assay in H1755 cells; type: cell-based; conditions: Homo sapiens, NCI-H1755, 2 hours treatment, read-out: H1755 Cell IC50
In short: as §1

[2] = MDR1 LLC-PK1 and BCRP MDCKII permeability assay: permeability coefficient (Papp); type: in vitro ADME
Excerpt: (§2) Final organic concentration in the assay was 1%.

P-gp (MDR1) = P-gp (MDR1) (Homo sapiens (Human), UniProt P08183); experiment: MDR1 LLC-PK1 permeability assay: efflux ratio; type: in vitro ADME; conditions: pig
Chain of P-gp (MDR1) (P08183 whole entry, species assumed): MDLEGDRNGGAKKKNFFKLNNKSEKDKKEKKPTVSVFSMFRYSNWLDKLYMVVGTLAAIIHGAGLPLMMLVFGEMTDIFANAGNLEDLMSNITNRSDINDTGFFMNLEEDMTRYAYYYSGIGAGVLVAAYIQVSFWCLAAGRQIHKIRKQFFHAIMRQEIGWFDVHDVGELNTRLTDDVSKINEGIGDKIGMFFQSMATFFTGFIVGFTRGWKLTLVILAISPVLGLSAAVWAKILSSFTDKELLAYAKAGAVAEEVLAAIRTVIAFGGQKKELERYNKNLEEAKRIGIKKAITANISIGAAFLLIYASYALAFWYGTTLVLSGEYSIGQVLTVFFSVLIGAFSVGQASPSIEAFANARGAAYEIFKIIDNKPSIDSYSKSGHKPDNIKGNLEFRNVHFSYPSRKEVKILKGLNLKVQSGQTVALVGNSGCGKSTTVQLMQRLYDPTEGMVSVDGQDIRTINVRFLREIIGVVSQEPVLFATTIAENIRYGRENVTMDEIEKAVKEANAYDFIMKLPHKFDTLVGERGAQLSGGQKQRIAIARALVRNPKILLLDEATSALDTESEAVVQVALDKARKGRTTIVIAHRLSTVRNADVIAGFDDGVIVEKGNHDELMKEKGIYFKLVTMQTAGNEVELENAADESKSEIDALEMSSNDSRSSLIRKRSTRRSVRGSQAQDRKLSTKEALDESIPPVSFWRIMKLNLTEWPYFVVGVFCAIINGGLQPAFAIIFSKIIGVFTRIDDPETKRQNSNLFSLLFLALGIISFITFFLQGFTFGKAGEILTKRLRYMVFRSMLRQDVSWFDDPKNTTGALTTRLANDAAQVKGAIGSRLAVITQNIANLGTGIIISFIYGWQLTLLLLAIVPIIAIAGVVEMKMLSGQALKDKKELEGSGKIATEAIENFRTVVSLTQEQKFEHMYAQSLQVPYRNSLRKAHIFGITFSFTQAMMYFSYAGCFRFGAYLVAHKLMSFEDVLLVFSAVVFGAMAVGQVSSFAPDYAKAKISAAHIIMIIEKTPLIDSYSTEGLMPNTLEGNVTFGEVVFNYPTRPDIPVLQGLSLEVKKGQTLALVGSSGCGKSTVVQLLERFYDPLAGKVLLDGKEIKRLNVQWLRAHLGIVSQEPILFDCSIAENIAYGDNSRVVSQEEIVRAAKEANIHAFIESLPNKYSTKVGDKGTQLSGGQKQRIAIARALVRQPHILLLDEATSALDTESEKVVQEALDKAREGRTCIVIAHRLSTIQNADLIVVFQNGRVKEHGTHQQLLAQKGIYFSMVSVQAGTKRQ
Excerpt: as §2

BCRP = BCRP (Homo sapiens (Human), UniProt Q9UNQ0); experiment: BCRP MDCKII permeability assay: efflux ratio; type: in vitro ADME; conditions: dog
Chain of BCRP (Q9UNQ0 whole entry): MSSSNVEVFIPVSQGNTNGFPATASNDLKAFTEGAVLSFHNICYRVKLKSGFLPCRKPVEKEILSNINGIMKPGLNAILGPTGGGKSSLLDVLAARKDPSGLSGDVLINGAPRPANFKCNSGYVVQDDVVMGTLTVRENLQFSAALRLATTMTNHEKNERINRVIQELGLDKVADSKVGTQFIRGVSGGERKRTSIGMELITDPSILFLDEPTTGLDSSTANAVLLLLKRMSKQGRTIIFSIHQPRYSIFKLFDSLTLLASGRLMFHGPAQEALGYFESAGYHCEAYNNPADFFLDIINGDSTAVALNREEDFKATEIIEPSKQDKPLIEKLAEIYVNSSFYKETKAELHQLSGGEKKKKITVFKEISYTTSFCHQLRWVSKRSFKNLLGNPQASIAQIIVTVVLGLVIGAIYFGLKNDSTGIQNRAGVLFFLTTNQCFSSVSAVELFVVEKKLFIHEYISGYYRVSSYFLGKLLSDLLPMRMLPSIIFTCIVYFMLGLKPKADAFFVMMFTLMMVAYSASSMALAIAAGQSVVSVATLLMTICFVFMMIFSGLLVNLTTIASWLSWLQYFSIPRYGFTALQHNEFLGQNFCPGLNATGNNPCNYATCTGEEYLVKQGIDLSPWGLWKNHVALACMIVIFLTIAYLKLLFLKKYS

[3] = averaged IC50, TR-FRET tracer displacement, 60 min

Chain of full-length FLAG-tagged B-Raf(V600E) (P15056 whole entry V600E): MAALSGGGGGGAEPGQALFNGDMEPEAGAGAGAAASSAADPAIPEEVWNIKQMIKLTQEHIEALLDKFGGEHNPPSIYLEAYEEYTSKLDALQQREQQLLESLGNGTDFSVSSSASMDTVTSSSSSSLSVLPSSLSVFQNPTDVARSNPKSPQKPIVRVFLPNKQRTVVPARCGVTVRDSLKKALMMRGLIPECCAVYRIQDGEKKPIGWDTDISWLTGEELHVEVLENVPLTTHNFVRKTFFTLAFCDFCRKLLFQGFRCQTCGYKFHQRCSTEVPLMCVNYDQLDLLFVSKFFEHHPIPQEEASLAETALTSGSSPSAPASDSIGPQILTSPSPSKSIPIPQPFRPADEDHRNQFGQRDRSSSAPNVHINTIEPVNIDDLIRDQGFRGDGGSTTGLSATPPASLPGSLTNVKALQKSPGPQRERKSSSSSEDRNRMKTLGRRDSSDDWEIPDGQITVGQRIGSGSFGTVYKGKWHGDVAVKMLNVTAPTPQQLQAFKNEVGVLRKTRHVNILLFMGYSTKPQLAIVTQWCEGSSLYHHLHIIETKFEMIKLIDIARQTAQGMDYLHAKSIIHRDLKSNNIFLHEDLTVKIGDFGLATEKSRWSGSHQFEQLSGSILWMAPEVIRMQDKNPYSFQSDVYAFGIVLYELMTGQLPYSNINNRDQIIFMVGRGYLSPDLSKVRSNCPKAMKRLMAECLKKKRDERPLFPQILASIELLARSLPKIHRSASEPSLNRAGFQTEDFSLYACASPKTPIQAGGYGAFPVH

**Q.** What does the source list for `Cn1cnc2ccc(Oc3c(F)ccc(NS(=O)(=O)N4C[C@@H](F)[C@@H](F)C4)c3Cl)c(Cl)c2c1=O` [Example 59, cis-N-(2-chloro-3-((5-chloro-3-methyl-4-oxo-3,4-dihydroquinazolin-6-yl)oxy)-4-fluorophenyl)-3,4-difluoropyrrolidine-1-sulfonamide]?
**A.** IC50 [1]: 0.001 µM; IC50 (A375 cells): 0.01 µM; IC50 (H1755 cells): 0.06 µM; Papp at 2 h, 1 µM [2]: 31 ×10⁻⁶ cm/s; efflux ratio at 2 h, 1 µM (P-gp (MDR1)): 4.9; efflux ratio at 2 h, 1 µM (BCRP): 12.9

**Q.** For `Cc1c(Nc2c(F)ccc(NS(=O)(=O)N3CC4CC4(F)C3)c2Cl)ccc2ncn(C)c(=O)c12` (stereo not drawn) [Example 149, N-(2-chloro-3-((3,5-dimethyl-4-oxo-3,4-dihydroquinazolin-6-yl)amino)-4-fluorophenyl)-1-fluoro-3-azabicyclo[3.1.0]hexane-3-sulfonamide], which IC50 [1, 3] is on record?
**A.** 0.008 µM

**Q.** And the IC50 (A375 cells)?
**A.** 0.108 µM

**Q.** What about the IC50 (H1755 cells) of the same molecule?
**A.** 0.337 µM

**Q.** And the Papp at 2 h, 1 µM [2]?
**A.** 25 ×10⁻⁶ cm/s

**Q.** What about the efflux ratio at 2 h, 1 µM (P-gp (MDR1)) of the same molecule?
**A.** 1.2

**Q.** What about the efflux ratio at 2 h, 1 µM (BCRP) of the same molecule?
**A.** 3.2

**Q.** For `Cc1c(Nc2c(F)ccc(NS(=O)(=O)N3CCCC3)c2F)ccc2ncn(C)c(=O)c12` [Example 113, N-(3-((3,5-dimethyl-4-oxo-3,4-dihydroquinazolin-6-yl)amino)-2,4-difluorophenyl)pyrrolidine-1-sulfonamide trifluoroacetate], which IC50 [1, 3] is on record?
**A.** 0.038 µM

**Q.** And the IC50 (A375 cells)?
**A.** 0.04 µM

**Q.** What about the IC50 (H1755 cells) of the same molecule?
**A.** 0.358 µM

**Q.** And the Papp at 2 h, 1 µM [2]?
**A.** 18 ×10⁻⁶ cm/s

**Q.** What about the efflux ratio at 2 h, 1 µM (P-gp (MDR1)) of the same molecule?
**A.** 1.3

**Q.** What about the efflux ratio at 2 h, 1 µM (BCRP) of the same molecule?
**A.** 1.9

**Q.** For `Cn1cnc2ccc(Nc3c(F)ccc(NS(=O)(=O)N4CC(F)(F)C4)c3Cl)c(Cl)c2c1=O` [Example 135, N-(2-chloro-3-((5-chloro-3-methyl-4-oxo-3,4-dihydroquinazolin-6-yl)amino)-4-fluorophenyl)-3,3-difluoroazetidine-1-sulfonamide], which IC50 [1, 3] is on record?
**A.** 0.003 µM

**Q.** What about the IC50 (A375 cells) of the same molecule?
**A.** 0.022 µM

**Q.** And the IC50 (H1755 cells)?
**A.** 0.189 µM

**Q.** What about the Papp at 2 h, 1 µM [2] of the same molecule?
**A.** 29 ×10⁻⁶ cm/s

**Q.** What about the efflux ratio at 2 h, 1 µM (P-gp (MDR1)) of the same molecule?
**A.** 1.9

**Q.** And the efflux ratio at 2 h, 1 µM (BCRP)?
**A.** 5.1

**Q.** With `CO[C@@H]1CCN(S(=O)(=O)Nc2ccc(F)c(Nc3ccc4ncn(C)c(=O)c4c3F)c2Cl)C1` [Example 5, (R)-N-(2-chloro-4-fluoro-3-((5-fluoro-3-methyl-4-oxo-3,4-dihydroquinazolin-6-yl)amino)phenyl)-3-methoxypyrrolidine-1-sulfonamide] as the molecule, how does the IC50 [1, 3] read?
**A.** 0.014 µM

**Q.** And the IC50 (A375 cells)?
**A.** 0.004 µM

**Q.** What about the IC50 (H1755 cells) of the same molecule?
**A.** 0.02 µM

**Q.** What about the Papp at 2 h, 1 µM [2] of the same molecule?
**A.** 27 ×10⁻⁶ cm/s

**Q.** And the efflux ratio at 2 h, 1 µM (P-gp (MDR1))?
**A.** 3.8

**Q.** And the efflux ratio at 2 h, 1 µM (BCRP)?
**A.** 3.4

**Q.** With `CC[C@@H]1CCN(S(=O)(=O)Nc2ccc(F)c(Nc3ccc4ncn(C)c(=O)c4c3F)c2Cl)C1` [Example 62, (R)-N-(2-chloro-4-fluoro-3-((5-fluoro-3-methyl-4-oxo-3,4-dihydroquinazolin-6-yl)amino)phenyl)-3-ethylpyrrolidine-1-sulfonamide trifluoroacetate] as the molecule, how does the IC50 [1, 3] read?
**A.** 0.013 µM

**Q.** And the IC50 (A375 cells)?
**A.** 0.031 µM

**Q.** And the IC50 (H1755 cells)?
**A.** 0.185 µM

**Q.** And the Papp at 2 h, 1 µM [2]?
**A.** 29 ×10⁻⁶ cm/s

**Q.** And the efflux ratio at 2 h, 1 µM (P-gp (MDR1))?
**A.** 1.6

**Q.** And the efflux ratio at 2 h, 1 µM (BCRP)?
**A.** 1

**Q.** What does the source list for `O=c1c2c(F)c(Nc3c(F)ccc(NS(=O)(=O)N4CCCC4)c3Cl)ccc2ncn1CF` [Example 42, N-(2-chloro-4-fluoro-3-((5-fluoro-3-(fluoromethyl)-4-oxo-3,4-dihydroquinazolin-6-yl)amino)phenyl)pyrrolidine-1-sulfonamide trifluoroacetate]?
**A.** IC50 [1, 3]: 0.002 µM; IC50 (A375 cells): 0.004 µM; IC50 (H1755 cells): 0.042 µM; Papp at 2 h, 1 µM [2]: 27 ×10⁻⁶ cm/s; efflux ratio at 2 h, 1 µM (P-gp (MDR1)): 1.8; efflux ratio at 2 h, 1 µM (BCRP): 2.4

**Q.** Which IC50 [1, 3] does the source give for `CO[C@H]1CN(S(=O)(=O)Nc2ccc(F)c(Nc3ccc4ncn(C)c(=O)c4c3Br)c2Cl)C[C@H]1F` (relative stereo) [Example 16, cis-N-(3-((5-bromo-3-methyl-4-oxo-3,4-dihydroquinazolin-6-yl)amino)-2-chloro-4-fluorophenyl)-3-fluoro-4-methoxypyrrolidine-1-sulfonamide trifluoroacetate] here?
**A.** 0.006 µM

**Q.** What about the IC50 (A375 cells) of the same molecule?
**A.** 0.007 µM

**Q.** And the IC50 (H1755 cells)?
**A.** 0.043 µM

**Q.** What about the Papp at 2 h, 1 µM [2] of the same molecule?
**A.** 29 ×10⁻⁶ cm/s

**Q.** What about the efflux ratio at 2 h, 1 µM (P-gp (MDR1)) of the same molecule?
**A.** 5.9

**Q.** And the efflux ratio at 2 h, 1 µM (BCRP)?
**A.** 4.5
